# Where no end group is shown, it is not given here. [ ]: non-standard residue; d: D form. The star is where a group is joined. 2Nal = N[C@@H](Cc1ccc2ccccc2c1)C(=O)O; Lauroyl = CCCCCCCCCCCC(=O)*; code J = not defined here; Octanoyl = CCCCCCCC(=O)*
# Key:
# S. epidermidis ATCC12228 = experiment: MIC, broth microdilution, S. epidermidis; assay type: cell-based; design: unit not given beside the values; conditions: #86: S. epidermidis ATCC12228
# Procedure: MICs (minimal inhibitory concentrations) were determined for the hexapeptides of interest using a slightly modified version of the NCCLS (National Committee for Clinical Laboratory Standards) broth microdilution method as described previously (Steinberg et al., AAC 41: 1738, 1997). Briefly, antimicrobial agents were prepared as 10× concentrates in the most appropriate solvent. For the hexapeptide, 0.01% acetic acid containing 0.2% bovine serum albumin as a carrier protein was used. Inocula were prepared by resuspending colonies from a BAP (please spell out this term) in medium and adjusting the suspension to match that of a 0.5 McFarland standard. The suspension was diluted into fresh medium (as recommended by NCCLS for the organism) to give 2×10^5 to 7×10^5 CFU/ml for bacteria or 2×10^3 to 7×10^3 CFU/ml for Candida. After dispensing 100 μl aliquots of the microbial suspension into each well of a 96-well polypropylene microtiter plate, 11 μl of test compound was added. The MIC was defined as the lowest concentration of drug which prevented visible turbidity after 16 to 20 hours (bacteria) or 46 to 50 hours (Candida) at 35° C.
# S. aureus MRSA = experiment: Kill kinetics in lipid (liposome) environment with or without serum; assay type: cell-based; conditions: peptide 0.5 mg/ml; liposomes, presence or absence of serum
# Description: Referring to FIG. 8, not only does lipidation improve the activity of hexapeptides in serum it improves activity in a lipid environment which is a mimic of the human acne lesion environment. The human sebaceous gland secretion, also called sebum, contains squalene, cholesterol, cholesterol esters, wax esters, and triglycerides in which a large […] of P. acnes appears to take advantage of this environment and hydrolyzes certain sebaceous lipids. The pre-pubertal and pubertal increase in sebum secretion is almost certainly involved in the pathogenesis of adolescent acne. The activity of SEQ ID NO: 55 was studied in this environment compared to P64(SEQ ID NO:90), a traditional cationic antimicrobial peptide. Due to the fact that most lipids are water insoluble, peptide-liposomes composed of phosphatidylcholine, phosphatidylglycerol and cholesterol in the molar ratio of 7:2:1 in saline were used and kill kinetics of the peptides were assessed in the presence or absence of serum.
# Trychophyton rubrum = experiment: MIC100 against dermatophyte Trychophyton rubrum; assay type: cell-based; conditions: T. rubrum; at 10 days
# Procedure: (§1) In order to compare the activity of various antimicrobial peptides, including hexapeptide SEQ ID NO:1 (P0666), MIC were determined against the dermatophytes Trychophyton rubrum and Trychophyton mentagrophytes. The concentration of samples investigated were: 2000, 1000, 500, 250 and 125 μg/ml, respectively. The medium used was modified Sabouraud's media without agar. For a 100 mL of modified Sabouraud medium: 3 g of Sabouraud's dextrose broth (Difco) was mixed into 100 mL of deionized water. The pH was adjusted to 7.0 with 0.1 N NaOH. The solution was autoclaved for thirty minutes. 940 μL of medium was poured into sterile 20 mL test tubes with plastic caps and was allowed to cool.
# (§2) 50 μL of […] was added to each 20 mL test tube to make the required concentration. A control tube was composed of 50 μL of saline without sample. For the MIC experiments,
# (§3) 10 μL of organism suspended in saline was added to the each 20 mL test tube and vortexed slightly. Each of the test tubes was covered in parafilm and maintained on a shaker at 27° C. at a speed of approximately 100 rpm.
# (§4) The growth/inhibition of the organism was observed on a daily basis. […] The Minimum Inhibition Concentration (MIC100) for compounds F1 to F10 against fungus Trychophyton rubrum and Trychophyton mentagrophytes at 10 days.
# [1] = tested on: Trychophyton mentagrophytes; experiment: MIC100 against dermatophyte Trychophyton mentagrophytes; assay type: cell-based; conditions: T. mentagrophytes; at 10 days
# Procedure: as §1, §2, §3, §4
# Lipoteichoic acid (LTA) = experiment: LTA binding assay; conditions: FIG. 7
# Description: Lipoteichoic acid (LTA) is a common cell wall component of gram-positive bacteria including organisms such as S. aureus and P. acnes. The release of LTA during infection can lead to the release of mediators of the host inflammatory response which in turn can result in sepsis (septic shock). For example, when injected into animals, LTA can elicit many of the characteristic features of septic shock, including cytokine production, leukocytopenia, circulatory failure, multiple-organ dysfunction syndrome, and mortality.
# [2] = design: species or system Sprague-Dawley rats; conditions: rat, in vivo
# Description: Each wound observed at each dressing change and the wound surface and tissue reaction assessed. There were 5 parameters of wound status that were checked: • i. Wound Film Security—Was the adhesive film used to cover the wound still completely adherent to the skin around the wound? • ii. Wound Surface—What was the exact visual appearance of the wound surface? • iii. Amount of Exudate—How much exudate was trapped under the film? In many cases, accumulated exudate causes the film to lose adherence and the exudates will escape. • iv. Severity of Tissue Reaction—A subjective rating of extent of tissue reaction on a scale of 1 (minimal), 2 (moderate), 3 (extensive). • v. % of Tissue Involved—In some situations, the wound surface contained denatures, friable tissue that could be wiped off with pressure applied to gauze. This test was used to better differentiate denatured tissue from viscous exudates.
compound,measurement,setting,value
KWKWJW-NH2 (KWKW[code J]W-NH2; reading uncertain; also: printed as KWKWJW-NH2) [SEQ ID NO: 60],MIC,S. epidermidis ATCC12228,>128
FAKALKALLKALKAL-NH2 [SEQ ID NO: 90],kill kinetics in lipid environment (in words),S. aureus MRSA,shown to be effective
same,MIC100,Trychophyton rubrum,1000 µg/mL
same,MIC100,[1],500 µg/mL
OCT-KWKWFW-NH2 (Octanoyl-KWKWFW-NH2; SMILES CCCCCCCC(=O)N[C@@H](CCCCN)C(=O)N[C@@H](Cc1c[nH]c2ccccc12)C(=O)N[C@@H](CCCCN)C(=O)N[C@@H](Cc1c[nH]c2ccccc12)C(=O)N[C@@H](Cc1ccccc1)C(=O)N[C@@H](Cc1c[nH]c2ccccc12)C(N)=O) [SEQ ID NO: 56],MIC,S. epidermidis ATCC12228,4
SEQ ID NO:83 (Lauroyl-[dK][dF][dK][dW][dP][dW]-NH2; SMILES CCCCCCCCCCCC(=O)N[C@H](CCCCN)C(=O)N[C@H](Cc1ccccc1)C(=O)N[C@H](CCCCN)C(=O)N[C@H](Cc1c[nH]c2ccccc12)C(=O)N1CCC[C@@H]1C(=O)N[C@H](Cc1c[nH]c2ccccc12)C(N)=O),LTA binding (in words),Lipoteichoic acid (LTA),fail to bind LTA
KWKWZW-NH2 (KWKW[2Nal]W-NH2) [SEQ ID NO: 63],MIC,S. epidermidis ATCC12228,2
SEQ ID NO:72 (Lauroyl-KFKWPW-NH2; SMILES CCCCCCCCCCCC(=O)N[C@@H](CCCCN)C(=O)N[C@@H](Cc1ccccc1)C(=O)N[C@@H](CCCCN)C(=O)N[C@@H](Cc1c[nH]c2ccccc12)C(=O)N1CCC[C@H]1C(=O)N[C@@H](Cc1c[nH]c2ccccc12)C(N)=O),LTA binding (in words),Lipoteichoic acid (LTA),binds LTA to the same degree as a typical highly charged alpha-helical amphipathic peptide
"CC(C)C[C@H](NC(=O)[C@H](C)NC(=O)[C@H](CC(C)C)NC(=O)[C@H](CCCCN)NC(=O)[C@H](C)NC(=O)[C@H](CC(C)C)NC(=O)[C@H](CCCCN)NC(=O)[C@H](CCCCN)NC(=O)[C@H](C)NC(=O)[C@H](CC(C)C)NC(=O)[C@H](CCCCN)NC(=O)[C@H](C)NC(=O)[C@H](CC(C)C)NC(=O)[C@H](CCCCN)NC(=O)[C@H](CCCCN)NC(=O)[C@H](C)NC(=O)[C@@H](N)C(C)C)C(N)=O [SEQ ID NO: 88, VAKKLAKLAKKLAKLAL-NH2]",Amount of exudate,[2],S/y
same,tissue reaction (in words),[2],mild to moderate

# From US7407940B2, “Antimicrobial hexapeptides” (Helix BioMedix Inc., priority 2005, dated 2008)
